The term pIC50 denotes −log10 of the IC50, conventionally taken in molar units.

The record followed here is patent US20250145606A1 (Arcus Biosciences, Inc., priority 2023, published 2025).

Assay [1] has as its target PDGFRα (Homo sapiens (Human), UniProt P16234). The assay can be described thus: Inhibition of PDGFRα kinase activity (HTRF KinEASE-TK). To be noted: biochemical, HTRF KinEASE-TK. An outline of the steps:
(§1)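 Recombinant kinases (2 nM CSF1R and c-Kit, 10 nM PDGFRα/β, 2× working) preincubated 1 h with compound in 50 mM HEPES pH 7.4, 5 mM MgCl2 (c-Kit) or 10 mM (others), 2 mM MnCl2; 2× ATP: c-Kit 16 μM, PDGFRα 1 μM, PDGFRβ 40 μM, CSF1R 20 μM. 120 min reaction at rt; TR-FRET 665/620 nm; IC50 by 4-parameter fit.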
In general terms: TR-FRET usually uses a lanthanide donor and a delayed reading to cut background.

The target of assay [2] is PDGFRβ (Homo sapiens (Human), UniProt P09619). The assay can be described thus: Inhibition of PDGFRβ kinase activity (HTRF KinEASE-TK). To be noted: biochemical, HTRF KinEASE-TK. An outline of the steps:
as §1

Assay [3] deals with Phospho-KIT (Y703) in M07e cells. Kind of assay: Phospho-KIT (Y703) cellular assay in M07e cells. The following applies: M-07e, read-out: M07e Cell IC50. Type of assay: cell-based. An outline of the steps:
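Serum-starved M07e cells preincubated 50 min at 37° C with 11-point half-log compound titration, then stimulated 10 min with SCF at 90.9 ng/mL final. Fixed, permeabilized cells stained for phospho-KIT Y703 and read by flow cytometry (live-gated geometric mean); IC50 by 4-parameter fit normalized to DMSO and positive control.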

Assay [4] has as its target CSF1R (Homo sapiens (Human), UniProt P07333). Kind of assay: Inhibition of CSF1R kinase activity (HTRF KinEASE-TK). To be noted: biochemical, HTRF KinEASE-TK. An outline of the steps:
as §1

In assay [5] the target is c-Kit (Homo sapiens (Human), UniProt P10721). Kind of assay: Inhibition of c-Kit kinase activity (HTRF KinEASE-TK). It is filed as biochemical. The following applies: biochemical, HTRF KinEASE-TK. An outline of the steps:
as §1

pIC50: −log10 of the molar value. Read-outs that look alike come from different tables or passages of the source. Bounds are passed on as bounds.

Chain of PDGFRβ (P09619 33-1106): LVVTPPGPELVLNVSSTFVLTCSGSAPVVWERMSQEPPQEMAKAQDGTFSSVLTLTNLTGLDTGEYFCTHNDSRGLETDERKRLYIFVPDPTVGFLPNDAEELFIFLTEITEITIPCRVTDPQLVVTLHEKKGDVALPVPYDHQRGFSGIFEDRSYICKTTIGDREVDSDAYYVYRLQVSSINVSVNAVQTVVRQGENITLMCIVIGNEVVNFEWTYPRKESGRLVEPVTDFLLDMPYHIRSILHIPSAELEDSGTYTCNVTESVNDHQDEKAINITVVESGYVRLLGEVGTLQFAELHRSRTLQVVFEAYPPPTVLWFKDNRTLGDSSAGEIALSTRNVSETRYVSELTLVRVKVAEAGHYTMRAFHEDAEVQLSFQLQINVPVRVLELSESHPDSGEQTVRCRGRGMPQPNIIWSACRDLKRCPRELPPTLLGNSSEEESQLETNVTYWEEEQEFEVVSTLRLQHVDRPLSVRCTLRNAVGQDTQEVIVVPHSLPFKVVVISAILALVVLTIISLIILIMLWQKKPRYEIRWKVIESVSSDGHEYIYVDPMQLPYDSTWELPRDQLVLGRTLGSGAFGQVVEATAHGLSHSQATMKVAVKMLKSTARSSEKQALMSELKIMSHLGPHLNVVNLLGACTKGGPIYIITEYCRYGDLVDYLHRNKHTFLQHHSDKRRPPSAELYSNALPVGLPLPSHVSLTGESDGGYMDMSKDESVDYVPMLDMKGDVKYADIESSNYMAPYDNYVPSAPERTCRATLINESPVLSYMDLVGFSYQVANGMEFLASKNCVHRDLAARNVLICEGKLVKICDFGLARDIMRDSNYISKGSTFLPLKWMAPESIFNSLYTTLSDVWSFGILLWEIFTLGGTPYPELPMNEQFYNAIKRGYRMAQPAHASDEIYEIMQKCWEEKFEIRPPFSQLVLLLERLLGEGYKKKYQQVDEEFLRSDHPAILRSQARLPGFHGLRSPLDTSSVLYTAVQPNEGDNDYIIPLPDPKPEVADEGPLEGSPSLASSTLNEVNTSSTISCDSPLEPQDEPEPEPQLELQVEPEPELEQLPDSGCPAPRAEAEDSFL
Chain of c-Kit (P10721 26-976): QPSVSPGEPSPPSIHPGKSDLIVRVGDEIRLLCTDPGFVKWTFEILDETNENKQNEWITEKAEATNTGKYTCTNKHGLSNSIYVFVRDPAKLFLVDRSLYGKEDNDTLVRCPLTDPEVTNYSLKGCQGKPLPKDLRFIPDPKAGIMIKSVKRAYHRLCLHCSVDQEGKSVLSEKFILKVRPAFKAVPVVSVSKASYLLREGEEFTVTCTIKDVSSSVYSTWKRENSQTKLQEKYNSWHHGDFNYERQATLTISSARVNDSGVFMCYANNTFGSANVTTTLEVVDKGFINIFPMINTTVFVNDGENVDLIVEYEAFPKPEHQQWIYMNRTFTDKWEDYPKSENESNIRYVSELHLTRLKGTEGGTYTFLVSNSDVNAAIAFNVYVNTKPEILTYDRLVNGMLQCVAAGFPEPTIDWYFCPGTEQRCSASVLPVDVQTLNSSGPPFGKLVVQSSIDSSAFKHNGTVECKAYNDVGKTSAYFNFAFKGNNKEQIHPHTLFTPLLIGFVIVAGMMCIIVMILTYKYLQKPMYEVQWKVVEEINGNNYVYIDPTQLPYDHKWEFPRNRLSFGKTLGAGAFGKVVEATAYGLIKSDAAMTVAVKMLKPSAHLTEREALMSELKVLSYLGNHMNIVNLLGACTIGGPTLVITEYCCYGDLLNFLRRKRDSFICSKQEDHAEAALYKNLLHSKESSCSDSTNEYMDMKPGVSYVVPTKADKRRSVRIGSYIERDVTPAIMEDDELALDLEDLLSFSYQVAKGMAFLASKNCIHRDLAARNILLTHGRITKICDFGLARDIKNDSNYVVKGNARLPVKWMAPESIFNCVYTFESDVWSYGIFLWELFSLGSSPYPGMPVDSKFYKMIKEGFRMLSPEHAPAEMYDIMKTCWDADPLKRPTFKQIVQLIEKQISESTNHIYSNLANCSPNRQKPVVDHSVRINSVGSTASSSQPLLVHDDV
Chain of PDGFRα (P16234 24-1089): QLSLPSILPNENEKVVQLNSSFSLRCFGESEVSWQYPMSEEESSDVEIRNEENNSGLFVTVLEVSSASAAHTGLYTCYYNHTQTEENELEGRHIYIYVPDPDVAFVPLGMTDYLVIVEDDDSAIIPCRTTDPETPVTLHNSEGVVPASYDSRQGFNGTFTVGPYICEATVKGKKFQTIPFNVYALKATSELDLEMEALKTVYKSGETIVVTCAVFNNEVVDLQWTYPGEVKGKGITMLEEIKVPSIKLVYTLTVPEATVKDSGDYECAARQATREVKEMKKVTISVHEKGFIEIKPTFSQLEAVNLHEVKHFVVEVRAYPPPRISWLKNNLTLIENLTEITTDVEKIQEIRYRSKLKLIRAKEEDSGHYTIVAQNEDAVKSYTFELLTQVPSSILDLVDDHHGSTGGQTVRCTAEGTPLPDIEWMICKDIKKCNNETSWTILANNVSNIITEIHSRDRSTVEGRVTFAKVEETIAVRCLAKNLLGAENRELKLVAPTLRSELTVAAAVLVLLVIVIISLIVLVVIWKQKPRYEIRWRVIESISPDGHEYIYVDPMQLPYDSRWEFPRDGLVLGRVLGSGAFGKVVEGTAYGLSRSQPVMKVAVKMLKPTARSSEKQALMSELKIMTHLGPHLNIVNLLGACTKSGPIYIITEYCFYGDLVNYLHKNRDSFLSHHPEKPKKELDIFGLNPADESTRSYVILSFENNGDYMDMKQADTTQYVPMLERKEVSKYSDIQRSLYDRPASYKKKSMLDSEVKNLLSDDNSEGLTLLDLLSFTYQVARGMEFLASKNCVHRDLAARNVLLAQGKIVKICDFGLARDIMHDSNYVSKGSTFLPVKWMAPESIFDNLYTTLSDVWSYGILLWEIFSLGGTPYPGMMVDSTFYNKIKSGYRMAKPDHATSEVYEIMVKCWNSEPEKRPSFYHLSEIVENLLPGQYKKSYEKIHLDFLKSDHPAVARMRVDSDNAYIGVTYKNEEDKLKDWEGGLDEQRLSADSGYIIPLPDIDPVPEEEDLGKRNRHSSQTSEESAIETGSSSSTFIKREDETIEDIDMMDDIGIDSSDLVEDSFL
Chain of CSF1R (P07333 20-972): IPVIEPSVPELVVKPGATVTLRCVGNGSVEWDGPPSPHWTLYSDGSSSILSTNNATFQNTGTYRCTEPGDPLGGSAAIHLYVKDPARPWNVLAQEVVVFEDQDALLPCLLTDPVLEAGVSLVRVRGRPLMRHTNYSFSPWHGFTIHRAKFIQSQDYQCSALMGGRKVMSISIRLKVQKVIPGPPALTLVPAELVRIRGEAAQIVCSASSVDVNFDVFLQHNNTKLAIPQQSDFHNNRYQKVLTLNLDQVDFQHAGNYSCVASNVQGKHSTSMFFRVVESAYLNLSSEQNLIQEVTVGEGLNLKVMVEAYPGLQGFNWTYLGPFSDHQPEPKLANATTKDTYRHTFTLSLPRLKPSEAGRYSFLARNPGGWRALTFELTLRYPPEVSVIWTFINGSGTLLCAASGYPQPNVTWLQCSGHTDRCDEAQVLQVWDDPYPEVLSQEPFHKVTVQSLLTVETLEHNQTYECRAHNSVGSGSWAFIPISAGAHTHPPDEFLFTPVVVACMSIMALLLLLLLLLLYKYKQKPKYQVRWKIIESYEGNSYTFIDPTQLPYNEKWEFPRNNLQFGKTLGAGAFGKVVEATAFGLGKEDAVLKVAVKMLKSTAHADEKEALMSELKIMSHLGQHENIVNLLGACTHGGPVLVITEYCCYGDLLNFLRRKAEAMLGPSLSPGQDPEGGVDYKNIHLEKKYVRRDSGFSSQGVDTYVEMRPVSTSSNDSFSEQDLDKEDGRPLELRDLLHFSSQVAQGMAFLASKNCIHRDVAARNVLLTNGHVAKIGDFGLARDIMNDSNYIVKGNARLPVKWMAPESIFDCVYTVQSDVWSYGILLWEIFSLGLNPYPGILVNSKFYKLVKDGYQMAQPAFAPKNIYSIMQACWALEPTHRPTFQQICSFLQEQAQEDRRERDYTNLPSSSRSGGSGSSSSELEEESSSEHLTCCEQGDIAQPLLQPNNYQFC

Regarding `Cc1ncc(C(=O)Nc2cc(C(=O)Nc3cnc(N4CC(O)C4)cn3)c(F)cc2C)s1` [Example 71, N-(4-fluoro-5-((5-(3-hydroxyazetidin-1-yl)pyrazin-2-yl)carbamoyl)-2-methylphenyl)-2-methylthiazole-5-carboxamide], the pIC50 in assay [1] is under 6.00; in assay [2], under 6.00; in assay [3] (Phospho-KIT (Y703), M07e cells), over 7.00; in assay [4], under 6.00; in assay [5] it was over 7.00.
With `Cc1ncc(C(=O)Nc2cc(C(=O)Nc3cnc(N4CC[C@@H](O)C4)cn3)c(F)cc2C)s1` [Example 72, (R)—N-(4-fluoro-5-((5-(3-hydroxypyrrolidin-1-yl)pyrazin-2-yl)carbamoyl)-2-methylphenyl)-2-methylthiazole-5-carboxamide], the negative logarithm of the IC50 (pIC50) in assay [1] was under 6.00; in assay [2] it was under 6.00; in assay [3] (Phospho-KIT (Y703), M07e cells) it was over 7.00; in assay [4] it was under 6.00; in assay [5], over 7.00.
Consider `COC1CN(c2cnc(NC(=O)c3cc(NC(=O)c4cnc(C)s4)c(C)cc3F)cn2)C1` [Example 73, N-(4-fluoro-5-((5-(3-methoxyazetidin-1-yl)pyrazin-2-yl)carbamoyl)-2-methylphenyl)-2-methylthiazole-5-carboxamide], for which the pIC50 in assay [1] was under 6.00; in assay [2], under 6.00; in assay [3] (Phospho-KIT (Y703), M07e cells), over 7.00; in assay [4], under 6.00; in assay [5] it was over 7.00.
Regarding `CO[C@@H]1CCN(c2cnc(NC(=O)c3cc(NC(=O)c4cnc(C)s4)c(C)cc3F)cn2)C1` [Example 74, (R)—N-(4-fluoro-5-((5-(3-methoxypyrrolidin-1-yl)pyrazin-2-yl)carbamoyl)-2-methylphenyl)-2-methylthiazole-5-carboxamide], the pIC50 is under 6.00 in assay [1]; under 6.00 in assay [2]; over 7.00 in assay [3] (Phospho-KIT (Y703), M07e cells); under 6.00 in assay [4]; over 7.00 in assay [5].
In the case of `Cc1ncc(C(=O)Nc2cc(C(=O)Nc3cnc(N4CCC[C@H]4C)cn3)c(F)cc2C)s1` [Example 84, N-(5-{N-5-[(R)-2-methyl-1-pyrrolidinyl]-2-pyrazinylcarbamoyl}-4-fluoro-2-tolyl)-2-methyl-1,3-thiazole-5-carboxamide], the pIC50 was under 6.00 in assay [1]; under 6.00 in assay [2]; over 7.00 in assay [3] (Phospho-KIT (Y703), M07e cells); under 6.00 in assay [4]; over 7.00 in assay [5].
In the case of `Cc1ncc(C(=O)Nc2cc(C(=O)Nc3cnc(N4CCCC4)cn3)c(F)cc2C)s1` [Example 85, N-{5-[N-5-(1-pyrrolidinyl)-2-pyrazinylcarbamoyl]-4-fluoro-2-tolyl}-2-methyl-1,3-thiazole-5-carboxamide], the pIC50 in assay [1] was under 6.00; in assay [2], under 6.00; in assay [3] (Phospho-KIT (Y703), M07e cells), over 7.00; in assay [4], under 6.00; in assay [5], over 7.00.
As to `Cc1ncc(C(=O)Nc2cc(C(=O)Nc3cnc(OCC4CC4)cn3)c(F)cc2C)s1` [Example 88, N-{5-[N-5-(cyclopropylmethoxy)-2-pyrazinylcarbamoyl]-4-fluoro-2-tolyl}-2-methyl-1,3-thiazole-5-carboxamide], the pIC50 in assay [1] is under 6.00; in assay [2], under 6.00; in assay [3] (Phospho-KIT (Y703), M07e cells), 6.00 to 7.00; in assay [4], under 6.00; in assay [5], 6.00 to 7.00.
With `COC[C@H]1CCCN1c1cnc(NC(=O)c2cc(NC(=O)c3cnc(C)s3)c(C)cc2F)cn1` [Example 90, N-(5-{N-5-[(R)-2-(methoxymethyl)-1-pyrrolidinyl]-2-pyrazinylcarbamoyl}-4-fluoro-2-tolyl)-2-methyl-1,3-thiazole-5-carboxamide], the pIC50 is under 6.00 in assay [1]; under 6.00 in assay [2]; 6.00 to 7.00 in assay [3] (Phospho-KIT (Y703), M07e cells); under 6.00 in assay [4]; over 7.00 in assay [5].
`Cc1ncc(C(=O)Nc2cc(C(=O)Nc3cnc(N4CCC(F)(F)C4)cn3)c(F)cc2C)s1` [Example 92, N-[5-[[5-(3,3-difluoropyrrolidin-1-yl)pyrazin-2-yl]carbamoyl]-4-fluoro-2-methylphenyl]-2-methyl-1,3-thiazole-5-carboxamide]: the pIC50 in assay [1] was under 6.00; in assay [2], under 6.00; in assay [3] (Phospho-KIT (Y703), M07e cells), over 7.00; in assay [4] it was under 6.00; in assay [5] it was over 7.00.
Consider `Cc1ncc(C(=O)Nc2cc(C(=O)Nc3cnc(N4CC[C@H](F)C4)cn3)c(F)cc2C)s1` [Example 93, N-[4-fluoro-5-[[5-[(3S)-3-fluoropyrrolidin-1-yl]pyrazin-2-yl]carbamoyl]-2-methylphenyl]-2-methyl-1,3-thiazole-5-carboxamide], for which the pIC50 in assay [1] was under 6.00; in assay [2] it was under 6.00; in assay [3] (Phospho-KIT (Y703), M07e cells), over 7.00; in assay [4], under 6.00; in assay [5], over 7.00.
For `Cc1ncc(C(=O)Nc2cc(C(=O)Nc3cnc(N4CC[C@@H](F)C4)cn3)c(F)cc2C)s1` [Example 94, N-[4-fluoro-5-[[5-[(3R)-3-fluoropyrrolidin-1-yl]pyrazin-2-yl]carbamoyl]-2-methylphenyl]-2-methyl-1,3-thiazole-5-carboxamide], the negative logarithm of the IC50 (pIC50) in assay [1] was under 6.00; in assay [2] it was under 6.00; in assay [3] (Phospho-KIT (Y703), M07e cells), over 7.00; in assay [4], under 6.00; in assay [5] it was over 7.00.
`Cc1ncc(C(=O)Nc2cc(C(=O)Nc3cnc(N4CCC[C@H]4C(F)(F)F)cn3)c(F)cc2C)s1` [Example 95, N-[4-fluoro-2-methyl-5-[[5-[(2S)-2-(trifluoromethyl)pyrrolidin-1-yl]pyrazin-2-yl]carbamoyl]phenyl]-2-methyl-1,3-thiazole-5-carboxamide]: the pIC50 in assay [1] is under 6.00; in assay [2] it was under 6.00; in assay [3] (Phospho-KIT (Y703), M07e cells), over 7.00; in assay [4] it was under 6.00; in assay [5], over 7.00.
Regarding `COC[C@@H]1CCCN1c1cnc(NC(=O)c2cc(NC(=O)c3cnc(C)s3)c(C)cc2F)cn1` [Example 97, N-[4-fluoro-5-[[5-[(2S)-2-(methoxymethyl)pyrrolidin-1-yl]pyrazin-2-yl]carbamoyl]-2-methylphenyl]-2-methyl-1,3-thiazole-5-carboxamide], the pIC50 is under 6.00 in assay [1]; under 6.00 in assay [2]; 6.00 to 7.00 in assay [3] (Phospho-KIT (Y703), M07e cells); under 6.00 in assay [4]; over 7.00 in assay [5].
Regarding `Cc1ncc(C(=O)Nc2cc(C(=O)Nc3ccc(CC(F)(F)F)cn3)c(Cl)cc2C)s1` [Example 99, N-[4-chloro-2-methyl-5-[[5-(2,2,2-trifluoroethyl)pyridin-2-yl]carbamoyl]phenyl]-2-methyl-1,3-thiazole-5-carboxamide], the pIC50 in assay [1] was under 6.00; in assay [2], under 6.00; in assay [3], 6.00 to 7.00; in assay [4], under 6.00; in assay [5], 6.00 to 7.00.
In the case of `Cc1ncc(C(=O)Nc2cc(C(=O)Nc3ccnc(CC4CC4)n3)c(F)cc2C)s1` [Example 100, N-[5-[[2-(cyclopropylmethyl)pyrimidin-4-yl]carbamoyl]-4-fluoro-2-methylphenyl]-2-methyl-1,3-thiazole-5-carboxamide], the pIC50 in assay [1] was under 6.00; in assay [2], under 6.00; in assay [3] (Phospho-KIT (Y703), M07e cells), 6.00 to 7.00; in assay [4], under 6.00; in assay [5], 6.00 to 7.00.
Turning to `Cc1ncc(C(=O)Nc2cc(C(=O)N[C@@H]3C[C@@H]3c3ccccc3Cl)c(F)cc2C)s1` [Example 101, N-[5-[[(1R,2R)-2-(2-chlorophenyl)cyclopropyl]carbamoyl]-4-fluoro-2-methylphenyl]-2-methyl-1,3-thiazole-5-carboxamide], the pIC50 in assay [1] is over 7.00; in assay [2] it was 6.00 to 7.00; in assay [3] (Phospho-KIT (Y703), M07e cells), over 7.00; in assay [4], 6.00 to 7.00; in assay [5] it was over 7.00.
On to `Cc1cc(F)c(C(=O)Nc2ccc(O[C@@H]3CCOC3)cn2)cc1NC(=O)c1cnc(N)s1` [Example 198, 2-Amino-N-[4-fluoro-2-methyl-5-[[5-[(3R)-oxolan-3-yl]oxypyridin-2-yl]carbamoyl]phenyl]-1,3-thiazole-5-carboxamide], for which the pIC50 in assay [1] was under 6.00; in assay [2], 6.00 to 7.00; in assay [3] (Phospho-KIT (Y703), M07e cells), over 7.00; in assay [4], under 6.00; in assay [5], over 7.00.
Take `Nc1ncc(C(=O)Nc2cc(C(=O)Nc3ccc(C4CC4)nn3)c(F)cc2Cl)s1` [Example 201, 2-Amino-N-[2-chloro-5-[(6-cyclopropylpyridazin-3-yl)carbamoyl]-4-fluorophenyl]-1,3-thiazole-5-carboxamide]: the pIC50 in assay [1] is under 6.00; in assay [2] it was 6.00 to 7.00; in assay [3] (Phospho-KIT (Y703), M07e cells) it was over 7.00; in assay [4] it was 6.00 to 7.00; in assay [5], over 7.00.
Consider `CC(C)Oc1ccc(NC(=O)c2cc(NC(=O)c3cnc(N)s3)c(Cl)cc2F)nc1` [Example 207, 2-Amino-N-[2-chloro-4-fluoro-5-[(5-propan-2-yloxypyridin-2-yl)carbamoyl]phenyl]-1,3-thiazole-5-carboxamide], for which the pIC50 in assay [1] was under 6.00; in assay [2], under 6.00; in assay [3] (Phospho-KIT (Y703), M07e cells), over 7.00; in assay [4], 6.00 to 7.00; in assay [5], over 7.00.
